Laboratory results: US20260240879A1, “TOPICAL PALA THERAPY FOR CANCER” (priority 2023, published 2026)
Entries after “also recorded” stand apart in the source; their conditions may differ.

What was measured:
[1] = Skin irritation testing, daily topical application for 7 days; conditions: for skin histology on day 7 / spleen weight on day 7 / skin irritation apparent: daily topical 2% PALA, 5% IMQ or 5% 5-FU; for skin irritation apparent / weight change: naive mice; for weight change: daily topical 5% IMQ or 5% 5-FU, in contrast to vehicle and 2% PALA
Description: The topical formulations of 2% PALA/50% acetone/10% glycerol, 5% imiquimod (IMQ), 5% 5-FU (5-FU), vehicle (50% acetone/10% glycerol) control, and Aquaphor were applied (~0.05 g/mouse) daily to the dorsal skin of SKH1-Elite female mice (8 weeks of age; n=5/group) for 7 days. […] Mice were monitored daily for weight change, skin appearance, and signs of distress. […] At harvest, spleen weights and colon lengths were measured.

[2] = test system: UVB-induced NMSC (AK lesions and SCC tumors); assay: UVB-induced NMSC mouse model: tumor number, area, growth phenotype and grade; conditions: 2% PALA or 5% IMQ, daily, 4 weeks
[3] = test system: cytokines and chemokines in treated skin; assay: Cytokine/chemokine profile of treated skin lysates (U-PLEX); conditions: for expression of inflammatory cytokine/chemokine panel in treated skin (in words): daily topical 2% PALA, 5% IMQ or 5% 5-FU, 7 days, vs vehicle; for IL-17C, Mean (SEM) / IL-17A, Mean (SEM) / GM-CSF, Mean (SEM) / IL-6, Mean (SEM) / KC, Mean (SEM) / RANTES, Mean (SEM): treated skin lysate, day 7, 2% PALA, 5% IMQ, 5% 5-FU, n = 5/group; for IL-17C, Mean (SEM): vehicle 0.5 (0.03); for IL-17A, Mean (SEM): vehicle 0.6 (0.1); for GM-CSF, Mean (SEM): vehicle 0.8 (0.1); for IL-6, Mean (SEM): vehicle 25.4 (3.2); for KC, Mean (SEM): vehicle 26.3 (6.4); for RANTES, Mean (SEM): vehicle 43.7 (3.2)
Description: The topical formulations of 2% PALA/50% acetone/10% glycerol, 5% imiquimod (IMQ), 5% 5-FU (5-FU), vehicle (50% acetone/10% glycerol) control, and Aquaphor were applied (~0.05 g/mouse) daily to the dorsal skin of SKH1-Elite female mice (8 weeks of age; n=5/group) for 7 days. […] Mice were monitored daily for weight change, skin appearance, and signs of distress.
Skin protein lysates were made by homogenizing frozen tissue with a pestle and scissors in RIPA buffer (50 mM Tris, pH8, 150 mM NaCl, 0.5% sodium deoxycholate, 1% NP-40, 0.1% sodium dodecyl sulfate, lx Pierce protease inhibitor cocktail (A32965, ThermoFisher)). Cytokines and chemokines were quantified from 25 μg of lysate using a custom 10-plex U-PLEX panel (K15069L-2; Meso Scale Discovery) that included: GM-CSF, KC/CXCL1, IFNα, IFNβ, IFNγ, IL-10, IL-6, IL-12p70, IL-17A, IL-17C, IL-17F, IP-10/CXCL10, MCP-1/CCL2, RANTES/CCL5, and TNFα. The MESO SECTOR S 600 plate reader (ICOAA-0; Meso Scale Discovery) was used to collect the U-Plex data and data was analyzed using MSD Discovery Workbench 4.0 software.

[4] = Toxicity markers in UVB-tumor-bearing mice under topical treatment (weight, SAA, colon length, fecal LCN2); conditions: 5% (w/w) 5-fluorouracil, daily topical
Description: Serum amyloid A levels were measured in plasma samples using the Mouse SAA ELISA kit (E-90SAA, Immunology Consultants Laboratory, Inc.) according to manufacturer's instructions. Lipocalin-2 (LCN2) was quantified from pre-weighed stool samples homogenized in 0.5 mL PBS using the Mouse Lipocalin-2/NGAL DuoSet ELISA (DY1857) and DuoSet Ancillary Reagent Kit 2 (DY008, R&D Systems).

SMILES	skin histology on day 7 [1]	spleen weight on day 7 [1]	skin irritation apparent [1] [days]	weight change [1]	tumor levels of interleukin-1β [2]	expression of inflammatory cytokine/chemokine panel in treated skin (in words) [3]	IL-17C, Mean (SEM) [3]	IL-17A, Mean (SEM) [3]	GM-CSF, Mean (SEM) [3]	IL-6, Mean (SEM) [3]	KC, Mean (SEM) [3]	RANTES, Mean (SEM) [3]	early termination of animals at the request of veterinary staff [4]
CC(C)Cn1cnc2c(N)nc3ccccc3c21 [IMQ, imiquimod]	overt thickening of the epidermis	splenomegaly	2	significant weight loss	elevated	upregulation of IL-17 family cytokines; also recorded: cutaneous levels of RANTES and GM-CSF were elevated	1.0 (0.04)	1.6 (0.1)	2.5 (0.7)	61.3 (10.0)	28.6 (5.9)	141.0 (36.1)	
O=c1[nH]cc(F)c(=O)[nH]1 [Formulation 5-FU, fluorouracil]	epithelial erosion	significant decreases in spleen weight	5	significant weight loss		increased expression of IL-6, IL-17C, KC, and GM-CSF	1.4 (0.1)	1.2 (0.4)	2.6 (0.2)	268.8 (104.8)	114.5 (16.4)	17.7 (5.0)	terminated after 2.5 weeks of treatment
